Where a SMILES comes first, the peptide text is derived from it. Bridges are numbered along the chain shown (N, C = ends). [ ]: non-standard residue; d: D form.
Biological target: T1, FPR1 (Homo sapiens, UniProt P21462)
T1 construct: host or cells: CHO (PathHunter CHO-FPR1 β-arrestin cells)
T1 sequence (P21462 1-350): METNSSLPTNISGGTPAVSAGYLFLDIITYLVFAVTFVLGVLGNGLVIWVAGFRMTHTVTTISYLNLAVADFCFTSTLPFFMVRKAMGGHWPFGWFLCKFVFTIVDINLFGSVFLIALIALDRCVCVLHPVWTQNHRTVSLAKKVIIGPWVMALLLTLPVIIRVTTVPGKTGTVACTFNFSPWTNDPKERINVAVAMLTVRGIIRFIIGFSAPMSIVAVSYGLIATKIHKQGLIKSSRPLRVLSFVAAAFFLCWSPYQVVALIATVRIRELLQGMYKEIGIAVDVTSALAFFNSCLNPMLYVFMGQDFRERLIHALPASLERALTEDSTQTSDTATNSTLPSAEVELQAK
Assay: FPR1 β-arrestin recruitment assay (PathHunter CHO-FPR1, antagonistic mode)
Type: cell-based
Conditions: CHO FPR1 β-arrestin cells; antagonistic assay vs reference agonist fMLF at its EC80; 60 min preincubation
Protocol: 2.2 FPR1 β-Arrestin Recruitment Assay
The PathHunter CHO—FPR1 (DiscoverX) assay was performed according to the manufacturer's protocol. In brief, CHO FPR1 β-arrestin cells were seeded at a density of 9000 cells per well in 20 μl of Ham's F12 medium (Invitrogen) in black 384-well culture plates and incubated overnight at 37° C. in a humidified atmosphere with 5% CO2. The next day, serial dilutions of the β-hairpin peptidomimetics of this invention have been prepared in DMSO and subsequently diluted in HBSS buffer supplemented with 20 mM Hepes and 0.1% BSA.
For antagonistic assay, 5 μl of compound solution or buffer was added to the cells with a final DMSO concentration of 0.5% (v/v). The plate was incubated for 60 min at 37° C. with 5% CO2 before addition of […] of the reference agonist fMLF peptide (Sigma-Aldrich) at its EC80 concentration. After 90 min of incubation at 37° C. with 5% CO2, 15 μl of beta-Glo detection reagent (Promega) were added. Reaction was developed for 20 min at room temperature and chemiluminescence was measured with a Victor2V (Perkin Elmer) luminescence reader.

IC50: 54 ± 21 nM
SMILES: CC[C@H](C)[C@@H]1NC(=O)[C@H]([C@@H](C)O)NC(=O)[C@H](Cc2c[nH]c3ccccc23)NC(=O)[C@H]2CCCN2C(=O)CNC(=O)[C@H](Cc2c[nH]c3ccccc23)NC(=O)[C@@H]2CSSC[C@H](NC1=O)C(=O)N[C@@H](Cc1ccc(O)cc1)C(=O)N[C@@H](CCC(=O)O)C(=O)N[C@@H](CCCCN)C(=O)N1CCC[C@@H]1C(=O)N[C@@H](CCCCN)C(=O)N[C@@H](Cc1ccc(O)cc1)C(=O)N[C@@H](Cc1c[nH]cn1)C(=O)N[C@@H](CCCCN)C(=O)N2 [compound 87, cyclo(-Tyr-His-Lys-Cys-Trp-Gly-^DPro-Trp-Thr-Ile-Cys-Tyr-Glu-Lys-^DPro-Lys-)] (cyclo(YHKCWG[dP]WTICYEK[dP]K); disulfide 4-11)

Reference: patent publication US9957297B2, “Template-fixed peptidomimetics as inhibitors of FPR1” (POLYPHOR AG, priority 2011, dated 2018)
